Where two headings read alike, the source gives them in different places.

The subject of assay [1] is protein kinases (human kinome). It counts as cell-based. As to conditions: for logFC ABL1: ABL1 (P00519-2); for logFC of SRC: Accession P12931-2; for logFC LCK: accession P06239-3; for logFC PDK3: PDK3 (Q15120-2); for Kinase hits: kinases significantly downregulated vs DMSO (fold change cutoff −1.25, P-value<0.01), ≤8 h, 0.1-5 μM degrader, 7 cell lines; for Total no. kinase hits: number of degraded kinases per library compound.

Assay [2] addresses protein kinases (human kinome) (Homo sapiens, UniProt P16591). It counts as cell-based. The settings on record: for logFC of FER (P16591-1): down; for logFC of FER: FER P16591-1.
[3] abbreviates: experiment wp056, direction of change down.
Setting [4] is: experiment wp103, direction of change down.
Where [5] appears, read: experiment wp107, direction of change down.

Chain of protein kinases (human kinome) (Homo sapiens, UniProt P16591) (P16591 whole entry): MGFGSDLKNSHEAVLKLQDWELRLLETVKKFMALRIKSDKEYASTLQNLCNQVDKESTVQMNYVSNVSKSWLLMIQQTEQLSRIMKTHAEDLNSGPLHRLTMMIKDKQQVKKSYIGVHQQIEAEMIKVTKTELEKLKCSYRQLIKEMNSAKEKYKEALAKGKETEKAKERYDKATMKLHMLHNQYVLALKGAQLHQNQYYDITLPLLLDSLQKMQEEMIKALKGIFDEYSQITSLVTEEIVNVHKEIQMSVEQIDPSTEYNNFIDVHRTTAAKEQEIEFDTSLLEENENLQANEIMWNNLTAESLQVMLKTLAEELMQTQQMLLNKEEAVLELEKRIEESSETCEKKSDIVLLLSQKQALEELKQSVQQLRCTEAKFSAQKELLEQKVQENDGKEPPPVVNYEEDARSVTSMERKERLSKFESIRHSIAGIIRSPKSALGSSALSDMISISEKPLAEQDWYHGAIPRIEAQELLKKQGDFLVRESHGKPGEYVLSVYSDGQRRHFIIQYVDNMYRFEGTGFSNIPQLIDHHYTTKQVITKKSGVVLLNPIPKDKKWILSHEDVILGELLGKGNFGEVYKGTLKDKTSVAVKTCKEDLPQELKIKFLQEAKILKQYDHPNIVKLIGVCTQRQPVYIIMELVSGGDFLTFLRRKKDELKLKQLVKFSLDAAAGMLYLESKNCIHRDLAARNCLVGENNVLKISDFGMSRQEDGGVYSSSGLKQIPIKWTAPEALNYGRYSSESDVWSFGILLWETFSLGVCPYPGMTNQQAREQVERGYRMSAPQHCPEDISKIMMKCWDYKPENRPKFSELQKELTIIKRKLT

As to `Nc1ncc(-c2ccc(S(=O)(=O)N(CCCNC(=O)CCOCCOCCOCCOCCOCCNc3cccc4c3C(=O)N(C3CCC(=O)NC3=O)C4=O)C3CC3)cc2)cc1-c1ccc2c(c1)CCNC2=O` (centres unmarked) [WH.10417.099], the “logFC CSNK1D” value was −1.455 in assay [1] (Accession P48730-2, experiment wp056, direction down); −1.301 in assay [1] (Accession P48730-2, experiment wp103, direction down); −1.248 in assay [1] (Accession P48730-2, experiment wp107, direction down); −0.6401 in assay [1] (Accession P48730-2, experiment wp172, direction down); −1.455 in assay [1] (CSNK1D P48730-2, experiment wp056); −1.301 in assay [1] (CSNK1D P48730-2, experiment wp103). Further, the “logFC CSNK1D” value was −1.248 in assay [1] (CSNK1D P48730-2, experiment wp107) and −0.6401 in assay [1] (CSNK1D P48730-2, experiment wp172). The “logFC GSK3B” value is listed as −1.294 in assay [1] (Accession P49841-2, experiment wp056, direction down); −1.442 in assay [1] (Accession P49841-2, experiment wp103, direction down); −0.8403 in assay [1] (Accession P49841-2, experiment wp105, direction down); −1.446 in assay [1] (Accession P49841-2, experiment wp107, direction down); −1.294 in assay [1] (GSK3B P49841-2, experiment wp056); −1.442 in assay [1] (GSK3B P49841-2, experiment wp103). For the same compound, the “logFC GSK3B” value in assay [1] (GSK3B P49841-2, experiment wp105) is −0.8403; in assay [1] (GSK3B P49841-2, experiment wp107) it was −1.446. In assay [1] (CSNK1A1 (P48729-2), experiment wp107), the logFC is recorded as −2.428. The “logFC of CSNK1A1 (P48729-2)” value in assay [1] (Experiment wp107) is recorded as −2.428.
`Cc1ccc(C(=O)Nc2ccc(CN3CCN(CCCOCCOCCOCCNC(=O)COc4cccc5c4C(=O)N(C4CCC(=O)NC4=O)C5=O)CC3)c(C(F)(F)F)c2)cc1C#Cc1cnc2cccnn12` (centres unmarked) [SB1.G.187]: the “logFC ABL1” value in assay [1] (experiment wp056) is listed as −0.5173; in assay [1] (experiment wp103), −0.754; in assay [1] (experiment wp107), −0.5339. The “logFC FYN” value is −0.5334 in assay [1] (Accession P06241-2, experiment wp107) and −0.5334 in assay [1] (FYN P06241-2, experiment wp107). Further, the “logFC of SRC” value was −0.604 in assay [1] (experiment wp056), −0.8282 in assay [1] (experiment wp103), −0.5683 in assay [1] (experiment wp105) and −1.206 in assay [1] (experiment wp107). The “logFC MAP3K20 (Q9NYL2-2)” value is listed as −0.6203 in assay [1] (Experiment wp103); −0.4387 in assay [1] (Experiment wp107); −0.7846 in assay [1] (Experiment wp114); −0.6203 in assay [1] (experiment wp103); −0.4387 in assay [1] (experiment wp107); −0.7846 in assay [1] (experiment wp114). Moreover, the “logFC of LYN (P07948-2)” value in assay [1] (Experiment wp114) is reported as −0.4408; in assay [1] (experiment wp105), −1.087. Besides, the logFC was −1.394 in assay [1] (FER (P16591-3), experiment wp172, direction down); −0.4719 in assay [1] (GK P32189-3, experiment wp056); −1.087 in assay [1] (LYN (P07948-2), experiment wp105); −0.4408 in assay [1] (LYN (P07948-2), experiment wp114). Moreover, the “logFC of FER” value in assay [1] (FER P16591-3, experiment wp172) is −1.394; in assay [2] (experiment wp056), −1.267; in assay [2] (experiment wp103) it was −1.672; in assay [2] (experiment wp105) it was −1.432; in assay [2] (experiment wp107) it was −1.76. In addition, the “logFC LCK” value is −1.003 in assay [1] (setting [3]), −1.237 in assay [1] (setting [4]) and −1.237 in assay [1] (setting [5]). For the same compound, the “logFC MAPK14” value in assay [1] (MAPK14, accession Q16539-2, experiment wp056, direction of change down) is −0.8019; in assay [1] (MAPK14, accession Q16539-2, experiment wp105, direction of change down), −0.9084; in assay [1] (MAPK14 Q16539-2, experiment wp056) it was −0.8019; in assay [1] (MAPK14 Q16539-2, experiment wp105), −0.9084. Besides, in assay [1] (experiment wp056), the “logFC PDK3” value is reported as −0.4827. Moreover, the results for the “logFC ABL1 (P00519-2)” value in assay [1] (experiment wp056), in assay [1] (experiment wp103) and in assay [1] (experiment wp107) were −0.5173, −0.754 and −0.5339, respectively. In addition, in assay [1] (experiment wp056), the “logFC PDK3 (Q15120-2)” value was −0.4827. In addition, the “logFC LCK (P06239-3)” value in assay [1] (setting [3]) is reported as −1.003; in assay [1] (setting [4]) it was −1.237; in assay [1] (setting [5]), −1.237. For the same compound, the “logFC of FER (P16591-1)” value is given as −1.267 in assay [2] (Experiment wp056), −1.672 in assay [2] (Experiment wp103), −1.432 in assay [2] (Experiment wp105) and −1.76 in assay [2] (Experiment wp107).
In the case of `Cc1ccc(C(=O)Nc2ccc(CN3CCN(CCCOCCOCCOCCNC(=O)COc4cccc5c4C(=O)N(C4CCC(=O)NC4=O)C5=O)CC3)c(C(F)(F)F)c2)cc1C#Cc1cnc2cccnn12` (centres unmarked) [SB1-G-187, N-(4-((4-(1-((2-(2,6-dioxopiperidin-3-yl)-1,3-dioxoisoindolin-4-yl)oxy)-2-oxo-6,9,12-trioxa-3-azapentadecan-15-yl)piperazin-1-yl)methyl)-3 (trifluoromethyl)phenyl)-3-(imidazo[1,2-b]pyridazin-3-ylethynyl)-4-methylbenzamide], the “kinases the bifunctional compound degrades” value in assay [1] (as stated for the structure in the embodiments) was “ABL1, ABL2, BLK, CDK14, CDK17, CDK5. CDK6, COQ8A, EPHA1, EPHA2, FER, FYN, GAK, IRAK1, LCK, LYN, MAP3K1, MAP3K20, MAP3K7, MAP4K2, MAP4K5, MAPK14, PDK1, PDK2, PDK3, RIPK1, RIPK2, SRC, STK10, TAOK3, and YES1”. In assay [1], the Kinase hits entry is reported as “ABL1, ABL2, BLK, CDK14, CDK17, CDK5, CDK6, COQ8A, EPHA1, EPHA2, FER, FYN, GAK, IRAK1, LCK, LYN, MAP3K1, MAP3K20, MAP3K7, MAP4K2, MAP4K5, MAPK14, PDK1, PDK2, PDK3, RIPK1, RIPK2, SRC, STK10, TAOK3, YES1,” and the “Total no. kinase hits” value is on record as 31.
For the compound `O=C(COc1cccc2c1C(=O)N(C1CCC(=O)NC1=O)C2=O)NCCCCCCCC(=O)NC1(c2ccc(-c3nc4ccn5c(=O)[nH]nc5c4cc3-c3ccccc3)cc2)CCC1` (centres unmarked) [INY.01.140.1], in assay [1] (experiment wp081), the “logFC PDK3” value is on record as −0.3755 and the “logFC PDK3 (Q15120-2)” value is −0.3755.
Take `CC(C)S(=O)(=O)c1ccccc1Nc1nc(Nc2ccc(N3CCN(CCOCCNC(=O)CNc4cccc5c4C(=O)N(C4CCC(=O)NC4=O)C5=O)CC3)cc2)ncc1Cl` (centres unmarked) [SK-3-91]: the “targets with significantly different degrader efficacy in the different cell lines with no obvious difference in protein expression” value in assay [1] (MOLT-4, KELLY, HEK293T) is on record as “SIK2, LIMK1, FAK”. Besides, in assay [1], the Kinase hits result is listed as “AAK1, ABL1, ABL2, AKT2, AKT3, AURKA, AURKB, BCKDK, BLK, BMP2K, BMPR1A, BUB1, BUB1B, CDC7, CDK10, CDK12, CDK13, CDK14, CDK16, CDK17, CDK18, CDK2, CDK4, CDK5, CDK6, CDK7, CDK9, CO18A, CSK, CSNK1D, EPHB2, EPHB4, FER, FYN, GAK HIPK1, ITK, LATS1,” and the “Total no. kinase hits” value stood at 89.
Consider `Cc1ccc(C(=O)Nc2ccc(CN3CCN(CCOCCOCCNC(=O)CNc4cccc5c4C(=O)N(C4CCC(=O)NC4=O)C5=O)CC3)c(C(F)(F)F)c2)cc1C#Cc1cnc2cccnn12` (centres unmarked) [TL13.150], for which the “logFC of SRC” value in assay [1] (experiment wp081) was −0.5331. Besides, the “logFC MAPK14” value was −0.5025 in assay [1] (MAPK14, accession Q16539-2, experiment wp081, direction of change down) and −0.5025 in assay [1] (MAPK14 Q16539-2, experiment wp081). Besides, the logFC in assay [1] (SRC (P12931-2) protein abundance, degrader vs DMSO, down) was −0.5331. The “logFC of FER (P16591-1)” value in assay [2] (Experiment wp081) was −1.511. Moreover, in assay [2] (experiment wp081), the “logFC of FER” value is on record as −1.511.
Regarding `CC(C)(C)c1nc(-c2cccc(NS(=O)(=O)c3c(F)cccc3F)c2F)c(-c2ccnc(NCCOCCNC(=O)CCOCCOCCNc3cccc4c3CN(C3CCC(=O)NC3=O)C4=O)n2)s1` (centres unmarked) [DD.03.107], the logFC in assay [1] (ACAD10 (Q6JQN1-5), experiment wp147, 1 uM) was −0.5536; in assay [1] (ACAD10 (Q6JQN1-5), experiment wp147, 2 uM), −0.5234; in assay [1] (ACAD10 (Q6JQN1-5), experiment wp147, 4 uM), −1.061; in assay [1] (GK P32189-3, experiment wp147, 1 uM), −0.4979; in assay [1] (GK P32189-3, experiment wp147, 2 uM), −0.4324; in assay [1] (GK P32189-3, experiment wp147, 4 uM), −0.7592. Also, the “logFC PDK3” value in assay [1] (experiment wp147, 1 uM) is −0.5119; in assay [1] (experiment wp147, 2 uM), −0.5406; in assay [1] (experiment wp147, 4 uM), −1.004. For the same compound, the “logFC PDK3 (Q15120-2)” value in assay [1] (experiment wp147, 1 uM) was −0.5119; in assay [1] (experiment wp147, 2 uM), −0.5406; in assay [1] (experiment wp147, 4 uM), −1.004.
